Laboratory results as given in patent US11078196B2, “Heteroaryl amides as inhibitors of protein aggregation” (UCB Biopharma SRL, priority 2014, dated 2021).
Read-outs that look alike come from different tables or passages of the source.

Columns and labels:
Stability in SGF = format: in vitro ADME
Plasma stability = format: in vitro ADME
[1] = In vivo pharmacokinetics and brain distribution, single i.v. or p.o. dose; set-up: species or system male C57BL/6 mice; settings: mice; for clearance / bioavailability: male, C57BL/6, mouse, plasma; for clearance: read-out: PK Clearance; for bioavailability: po, read-out: Oral Bioavailablility
Procedure: The pharmacokinetics and brain distribution of the compounds described herein was determined in male C57BL/6 mice following single intravenous or oral dose administration. A group of 54 male mice were divided into two groups of 27 mice. […] Blood samples were collected pre-dose and at 0.08, 0.25, 0.5, 1, 2, 4, 8, and 24 h post-dose (i.v.), and pre-dose, and at 0.25, 0.5, 1, 2, 4, 6, 8 and 24 h post-dose (p.o.). Blood was collected from sets of three mice at each time point in labeled microcentrifuge tubes containing K2EDTA as anticoagulant. Plasma samples were separated by centrifugation of whole blood and stored below −70° C. until bioanalysis. After collecting blood samples, mice were humanely euthanized by CO2 asphyxiation and brain was collected at the same time points. Following collection, the brain samples were washed in ice-cold phosphate buffer saline (pH 7.4), gently dried on filter paper, weighed and placed in polypropylene tubes. Further brain samples were homogenized using phosphate buffer saline pH 7.4 and the total homogenate volume was thrice the brain weight. The samples were then stored below −70° C. until bioanalysis. All samples were processed for analysis by protein precipitation using acetonitrile and analyzed with fit-for-purpose LC/MS/MS method (LLOQ: 1.01 ng/mL for plasma and brain). Pharmacokinetic parameters were calculated using the non-compartmental analysis tool of Phoenix WinNonlin (Version 6.3).

[2] = test system: Line 61 ASYN transgenic mouse; assay: Round Beam Task, sensorimotor impairment; format: in vivo; settings: for number of slips, Round Beam Task: Example 6A, three months, vs. vehicle-treated transgenic mice; for number of slips, Round Beam Motor Performance assay: Example 6B
From the text: The Round Beam Task was used to assess sensorimotor impairments, using number of slips as the primary outcome measure (FIG. 4).

[3] = test system: transgenic ASYN protein in Line 61 ASYN transgenic mouse; assay: Western Blot analysis of cerebral cortical and hippocampal brain homogenates; format: in vivo
Procedure: (§1) Example 1 was evaluated in a transgenic mouse model of PD overexpressing human wild-type ASYN under the Thy-1 promoter (also referred to as the Line 61 ASYN transgenic mouse), by administering Example […] 0, 1, or 5 mg/kg (i.p.) once daily (five days per week) for three months and then assessing PD-relevant sensorimotor performance, biochemical alterations, and neuropathological changes in ASYN and related proteins.
(§2) Biochemical evaluations of oligomeric proteins using A11 antibody dot blot methods (including ASYN) in cortical homogenates were performed.

[4] = test system: oligomers in Line 61 ASYN transgenic mouse; assay: A11 antibody dot blot of oligomeric proteins in cortical homogenates; format: in vivo; settings: 5 mg/kg; p<0.001 vs. vehicle-treated ASYN transgenic mice
Procedure: as §1, §2

[5] = test system: ASYN in Line 61 ASYN transgenic mouse; assay: ASYN immunolabeling in cortical neuropil and neuronal cell bodies; format: in vivo; settings: for alpha-synuclein immunolabeling in cortical neuropil: p<0.0001 vs. vehicle-treated ASYN transgenic mice
Procedure: These neuropathological findings were reconfirmed in the current study using the methods described by Masliah and colleagues. Example 1 administration (1 and 5 mg/kg dosing) produced statistically significant decreases in ASYN levels as determined by effects on ASYN immunolabeling (FIGS. 6 and 7). There was a statistically significant increase in ASYN immunolabeling with the Millipore anti-alpha-synuclein antibody in the cortical neuropil (****p<0.0001) (FIG. 6A) and in neuronal cell bodies of ASYN transgenic mice (**p<0.01) (FIG. 6B) relative to non-transgenic/vehicle controls.

[6] = test system: Line 61 ASYN transgenic mice; assay: Fecal boli counts in a novel environment; format: in vivo, mouse
Procedure: An earlier published study included a report that Line 61 ASYN transgenic mice have decreased colonic motility, fecal output, and weight (Wang, L. et al. Neurogastroenterol. Motil. 2012, 24(9), e425-436). For the present study, an assessment of fecal boli counts was conducted in conjunction with a spontaneous locomotor activity test session. At the conclusion of a five-minute test session, the experimenter counted the number of fecal boli present in the test chamber, and the results are presented in FIG. 9.

[7] = test system: cardiac ASYN in Line 61 ASYN transgenic mice; assay: Post-mortem Western blot of cardiac ASYN; format: in vivo, mouse; settings: p<0.0001 vs. vehicle-treated ASYN transgenic mice
From the text: Like bowel dysfunction, alterations in cardiac biochemistry and function may precede Parkinson's disease diagnosis by 20 years or more. Well-characterized functional alterations in PD patients include altered heart rate variability and orthostatic hypotension (Kaufmann, H. et al., Handbook Clin. Neurol. 2013, 117, 259-278; Jain, S. et al., Neurobiol. Dis. 2012, 46(3), 572-580; Senard, J. M. et al., Rev. Neurol. (Paris) 2010, 166(10), 779-784; Post, K. K. et al., Parkinsonism Relat. Disord. 2008, 14(7), 524-531). These functional changes are accompanied by pathological findings of loss of myocardial noradrenergic innervation and the presence of ASYN aggregates in cardiac autonomic nerves (Jellinger, K. A., J. Neurol. Sci. 2011, 310 (1-2), 107-111). […] For the present study, post-mortem Western blot evaluations of cardiac ASYN by Western blot analysis were performed to confirm the presence in ASYN transgenic cardiac tissue and to evaluate the effects of Example 1 on transgenic cardiac levels of ASYN (FIG. 10). There was a statistically significant increase in detected cardiac levels of ASYN in vehicle-treated ASYN transgenic mice relative to vehicle-treated non-transgenic control mice (***p<0.001).

PDNG78 transgenic mice = assay: Longitudinal retinal imaging of ASYN-GFP; format: in vivo, mouse; settings: 5 mg/kg i.p., after approximately 60 days through 90 days
Procedure: A total of four imaging sessions were conducted, including a baseline prior to starting treatments and three subsequent imaging sessions at approximately one-month intervals.

## CCCCNC(=O)C(Cc1c[nH]c2ccccc12)NC(=O)c1cnc(N2CCNCC2)s1 (centres unmarked) [Comp. A, reference compound]
Stability in SGF
  Stability in SGF: stable
Plasma stability; @ 60 min
  Plasma Stability: 35% @
[1]; intravenous, at 10 mg/kg
  clearance: 71 mL/min/kg
[1]; at 10 mg/kg
  B:P ratio (PO): 0.05

## CCCNC(=O)NC(Cc1c[nH]c2ccccc12)NC(=O)c1cnc(N2CCN(C)CC2)s1 (centres unmarked) [Comp. B, reference compound]
Stability in SGF
  Stability in SGF: unstable
Plasma stability; @ 60 min
  Plasma Stability: 89% @
[1]; intravenous, at 10 mg/kg
  clearance: 258 mL/min/kg
[1]; at 10 mg/kg
  bioavailability: 14%
  B:P ratio (IV): 0.1
  B:P ratio (PO): 0.08

## CCCCC(Cc1c[nH]c2ccccc12)NC(=O)c1cnc(N2CCN(C)CC2)s1 (centres unmarked) [Example 1, N-(1-(1H-Indol-3-yl)hexan-2-yl)-2-(4-methylpiperazin-1-yl)thiazole-5-carboxamide]
Stability in SGF
  Stability in SGF: stable
Plasma stability; @ 120 min
  Plasma Stability: 100% @
[1]; iv, at 10 mg/kg
  clearance: 81 mL/min/kg
[1]; at 10 mg/kg
  bioavailability: 53%
  B:P ratio (IV): 2.0
  B:P ratio (PO): 0.4
[2]; 1 mg/kg i.p. once daily
  number of slips, Round Beam Task: statistically significantly reductions in slips
[2]; 5 mg/kg i.p. once daily
  number of slips, Round Beam Task: statistically significantly reductions in slips
[2]; 0.5 mg/kg
  number of slips, Round Beam Motor Performance assay: non-statistically significant decrease in slips
[2]; 1 mg/kg, p<0.01 vs. vehicle-treated ASYN transgenic mice
  number of slips, Round Beam Motor Performance assay: statistically significant improvement (decreased slips)
[3]
  transgenic ASYN protein levels: statistically significant reductions
[4]
  oligomers (A11 immunostaining) in cytosolic fraction of frontal cortex: statistically significant decrease in oligomers
[5]; 1 mg/kg
  alpha-synuclein immunolabeling in cortical neuropil: statistically significant decreases in alpha-synuclein immunolabeling
[5]; 5 mg/kg
  number of ASYN immunolabeled neuron cell bodies: non-statistically significant decrease
  alpha-synuclein immunolabeling in cortical neuropil: statistically significant decreases in alpha-synuclein immunolabeling
[6]; ASYN transgenic mice, 0.5 mg/kg, p<0.05 vs. vehicle
  number of fecal boli produced: restored function
[6]; ASYN transgenic mice, 1 mg/kg, p<0.001 vs. vehicle
  number of fecal boli produced: restored function
[6]; non-transgenic mice
  number of fecal boli produced: no effect
[7]; 0.5 mg/kg
  cardiac levels of ASYN: statistically significant normalizations of ASYN levels
[7]; 1 mg/kg
  cardiac levels of ASYN: statistically significant normalizations of ASYN levels
PDNG78 transgenic mice; p<0.001 vs. vehicle
  percentage of ASYN-GFP positive area in retinal images: decreased
PDNG78 transgenic mice; p<0.01 vs. vehicle
  number of ASYN-GFP positive particles in retinae: decreased

## CN1CCN(CCc2ncc(C(=O)NCCc3c[nH]c4ccccc34)s2)CC1 [Example 4, N-(2-(1H-Indol-3-yl)ethyl)-2-(2-(4-methylpiperazin-1-yl)ethyl)thiazole-5-carboxamide]
Stability in SGF
  Stability in SGF: stable
Plasma stability; @ 120 min
  Plasma Stability: 25% @
[1]; iv, at 10 mg/kg
  clearance: 95 mL/min/kg
[1]; at 10 mg/kg
  bioavailability: 100%
  B:P ratio (IV): 0.4
  B:P ratio (PO): 0.1

## CCCCC(Cc1c[nH]c2ccccc12)NC(=O)c1cnc(CCN2CCN(C)CC2)s1 (centres unmarked) [Example 5, N-(1-(1H-Indol-3-yl)hexan-2-yl)-2-(2-(4-methylpiperazin-1-yl)ethyl)thiazole-5-carboxamide]
Stability in SGF
  Stability in SGF: stable
Plasma stability; @ 120 min
  Plasma Stability: 100% @
[1]; iv, at 10 mg/kg
  clearance: 24 mL/min/kg
[1]; at 10 mg/kg
  bioavailability: 79%
  B:P ratio (IV): 0.18
  B:P ratio (PO): 0.05

## CCCCC(Cc1c[nH]c2ccc(F)cc12)NC(=O)c1cnc(CCN2CCOCC2)s1 (centres unmarked) [Example 10, N-(1-(5-Fluoro-1H-indol-3-yl)hexan-2-yl)-2-(2-morpholinoethyl)thiazole-5-carboxamide]
[1]; intravenous, at 2 mg/kg
  clearance: 75 mL/min/kg
[1]; at 10 mg/kg
  bioavailability: 13%
  B:P ratio (PO): 0.15
[1]; at 2 mg/kg
  B:P ratio (IV): 0.8

## CCCC[C@@H](Cc1c[nH]c2ccccc12)NC(=O)c1cnc(N2CCN(C)CC2)s1 [Example 27, (S)-N-(1-(1H-Indol-3-yl)hexan-2-yl)-2-(4-methylpiperazin-1-yl)thiazole-5-carboxamide]
[1]; iv, at 10 mg/kg
  clearance: 37 mL/min/kg
[1]; at 10 mg/kg
  bioavailability: 57%
  B:P ratio (IV): 1.4
  B:P ratio (PO): 0.3

## CCCC[C@H](Cc1c[nH]c2ccccc12)NC(=O)c1cnc(N2CCN(C)CC2)s1 [Example 28, (R)-N-(1-(1H-Indol-3-yl)hexan-2-yl)-2-(4-methylpiperazin-1-yl)thiazole-5-carboxamide]
[1]; iv, at 10 mg/kg
  clearance: 69 mL/min/kg
[1]; at 10 mg/kg
  bioavailability: 14%
  B:P ratio (IV): 2.1
  B:P ratio (PO): 0.4
